# Measured values taken from a melting point compilation (Tetko et al.; mined from patent text by program, amines drawn as free bases though some values may be those of a salt).
# Residues, ends and D or L forms follow the SMILES beside them. *: point of attachment. Boc = CC(C)(C)OC(=O)*; Bn = c1ccc(C*)cc1
row,melting point [°C],Structure (SMILES)
1,269 to 270,O=C(O)c1cccc2sc3ccccc3c(=O)c12
2,60 to 63,CCc1ccc(-c2ccc(F)cc2)cc1
3,96,O=[N+]([O-])c1ccccc1OCC(O)CO (stereo not drawn)
4,164 to 166,COc1ccc(-n2nc(C(F)(F)F)cc2-c2ccc(S(C)(=O)=O)cc2)cc1Br
5,164 to 169,NC(=O)[C@H]1CN(c2ccc(C3=CCOCC3)c(F)c2)C(=O)O1
6,131 to 133,O=C1CCC([N+](=O)[O-])C(c2cccc(Cl)c2)N1 (stereo not drawn)
7,174,O=C(C=CCN1CCN(CC(=O)OCc2ccccc2)CC1)Nc1cc2c(Nc3ccc(F)c(Cl)c3)ncnc2cc1OCC1CC1
8,27 to 28,C=CCOc1ccc(OCCBr)cc1
9,140 to 141,CSC(Cc1ccc(OCCN(C)c2nc3ccccc3o2)cc1)C(=O)O (stereo not drawn)
10,63 to 65,C=CC[C@@H]1CCc2cc(OC)ccc2[C@H]1O (relative stereo)
11,214 to 215,COc1cc(C)nc2nc(S(=O)(=O)Nc3c(Cl)cccc3Cl)nn12
12,219,CNC1(c2ccccc2Cl)C(=O)Nc2c(F)cc(Cl)cc21 (stereo not drawn)
13,225 to 227,CCC(=O)NCC(C)(C)c1ccc(C(=O)Nc2cn3cc(Cl)ccc3n2)cc1
14,256 to 258,COc1ccc(-c2[nH]c3cn[nH]c(=O)c3c2Cl)cc1OCC1CC1
15,157 to 158,C=CC(=O)Oc1ccc(N2C(=O)C(=C(C)C)/C(=C(/C)c3cc(C)oc3C)C2=O)cc1
16,97 to 98,Cc1cc(C#N)sc1-c1ccc2c(c1)C(C)(C)OC(C(F)(F)F)N2 (stereo not drawn)
17,102,CC(C)(C)OC(=O)N1CCN(C(=O)C2CCCCN2C(=O)OCc2ccccc2)CC1 (stereo not drawn)
18,150,CCN1CCN([C@@H](CNS(=O)(=O)c2ccc(OCc3cc(C)nc4ccccc34)cc2)C(=O)NO)CC1
19,210 to 211,CC(C)CCOc1ccc(-n2cc(C(=O)O)cn2)cc1C#N
20,289 to 291,COc1cccc2c(=O)n(/C=C/C(=O)O)cnc12
21,202 to 204,NC(=O)c1ccc(CCN2CC=C(c3c[nH]c(-c4ccc(F)cc4)c3-c3ccncc3)CC2)cc1
22,75 to 76,O=C(CCCCCCS(=O)(=O)c1ccc2ccccc2c1)c1ncco1
23,144 to 146,O=C(O)COc1c(I)cc(C(=O)c2c(Cc3ccccc3)oc3ccccc23)cc1I
24,57 to 60,Cc1nc2ccc(C(C)(C)CNC=O)cc2[nH]1

row,melting point [°C],Structure (SMILES)
1,195 to 196,CCn1ncc2c(-c3cncc(C)c3)c(/C=C/C(=O)O)c(COC)nc21
2,216 to 217,O=C(Cl)c1ccc(-c2ccc(C(=O)Cl)cn2)nc1
3,170 to 171,Cc1scc2c1N(C(=O)NCCN1CCC(CCCN3CCCCC3)CC1)c1ccccc1NC2=O
4,62,CCCCC(C(=O)OCC)S(=O)(=O)c1ccc(OC)cc1 (stereo not drawn)
5,160 to 162,CCCN(CCC)S(=O)(=O)c1cccc(C(=O)Nc2ccc(Br)cc2)c1
6,155 to 158,CCC(CC)NC(=O)C[C@@H](C(=O)NC[C@@H](O)[C@@H](N)Cc1ccccc1)C(C)(C)C
7,98 to 99,NC(=O)C(CCCCCOc1c(Cl)ccc(C=O)c1[N+](=O)[O-])N1CCCCC1 (stereo not drawn)
8,246 to 248,Cc1cccc(-c2[nH]c(C(C)C)nc2-c2cccc(-c3ccc(S(N)(=O)=O)cc3F)c2)n1
9,166 to 168,O=C(CCC(=O)N1CCC[C@H]1C(=O)O)c1ccc(Br)s1
10,178 to 180,CN(C)S(=O)(=O)c1ccc(-c2ccc(N)cc2)cc1
11,164 to 166,c1ccc(-c2nc(N3CCN(c4ccccn4)CC3)c3ccccc3n2)cc1
12,63 to 64,O=C1c2ccccc2C(=O)N1CCCCCCCCOc1cccc2ccccc12
13,102,CC(=O)NCCN1CCCc2ccccc21
14,254 to 256,COc1ccccc1C1(Cl)C(=O)Nc2cc(C)c(Cl)cc21 (stereo not drawn)
15,261,CNC(=O)c1cc2c(nc(C)n2C)c2c1C(=O)CC1(Cc3ccccc3C1)N2
16,135 to 136,O=C(O)c1cccc(-c2cccc(OCCc3cccc(C(F)(F)F)c3)n2)c1
17,81 to 82,Cc1coc2c1C(=O)CC(c1cccs1)C2 (stereo not drawn)
18,307,"CC(=O)Nc1ccc2c(c1)CC1CC(=O)NN=C21 (single isomer, unassigned; (-))"
19,173 to 175,CCCCOc1c(CN)n(CC(C)C)c(=O)c2ccc(/C=C/C(N)=O)cc12
20,112,CCCC(=O)Nc1ccccc1Oc1cc(-c2ccc(C(F)(F)F)cc2)ncn1
21,228 to 229,CCOc1cc(C)nc2nc(S(=O)(=O)Nc3c(Cl)ccc(C)c3Cl)nn12
22,117 to 119,CN1CCC(c2nn(-c3ccccc3C#N)c3ccccc23)CC1
23,113 to 115,CCCc1c(OCCCOc2ccc3c(=O)cc(C(=O)OC)oc3c2CCC)ccc(C(C)=O)c1O
24,106 to 108,CC(=O)N(C)Nc1nnc(-c2ccccc2C)s1

row,melting point [°C],Structure (SMILES)
1,215 to 217,CC1COc2cnc3cc(Cl)ccc3c2N1 (stereo not drawn)
2,116,COc1c(Cl)nc(N2CCOCC2)nc1Cl
3,122 to 124,CC(C(=O)O)c1ccc2oc(Cc3c(Cl)cccc3Cl)nc2c1 (stereo not drawn)
4,178,N#Cc1ccc(NC(=O)c2ccc3ccccc3c2O)c(OC(F)(F)F)c1
5,161 to 162,CCOC(=O)/C=C/c1ccc(C=Cc2nc(-c3ccccc3)oc2C)cc1
6,157 to 158,CCOc1cc(N)c([N+](=O)[O-])cc1NCCO
7,125 to 126,COc1ccc(-c2cc(NCc3ccccc3)nnc2-c2ccc(OC)cc2)cc1
8,220 to 221,CN1CC[C@@H](c2c(O)cc(O)c3c(=O)cc(-c4cc(O)ccc4Cl)oc23)[C@@H]1CO
9,202 to 203,CC(=O)NC[C@H]1CN(c2ccc(N3CCS(=O)(=O)CC3)c(F)c2)C(=O)O1
10,128 to 129,COC(=O)C(CC(C)C)NC(=O)C(C)NC(=O)C(Cc1ccc(OCc2ccccc2)cc1)NC(=O)OC(C)(C)C (stereo not drawn) (Boc-Tyr(Bn)-Ala-Leu-OMe; configuration not given here)
11,133,CCCCSc1cc2nc3ccccc3sc-2cc1=O
12,157 to 158,CC(Cl)C(=O)c1ccc2c(c1)CC(=O)N2 (stereo not drawn)
13,85 to 86,CC1(C)CCOc2ccc(C3(C)C=CC=CC3C=O)cc21 (stereo not drawn)
14,179 to 180,Oc1ccc(Nc2ccc3cc(Br)ccc3c2)cc1
15,158 to 160,CC1(Nc2ccccc2)OC(=O)C=C1c1ccccc1 (stereo not drawn)
16,200 to 201,NC(=O)CNC(=O)c1cccc(-c2cccc3cc(Cc4cc(F)cc(Cl)c4)sc23)n1
17,182 to 185,COc1cc(Nc2nc3cccc(-c4ccccc4)c3o2)cc(OC)c1OC
18,70 to 73,COc1cccc(NCc2sccc2S(=O)(=O)Nc2onc(C)c2Br)c1
19,> 300,O=C1Nc2cccc(NC(=O)c3cccn(-c4ccc(F)cc4)c3=O)c2/C1=C/c1ccc[nH]1
20,103 to 105,COC(=O)C1CC(Oc2ccc([N+](=O)[O-])cc2)CN1C(=O)C1(C)CCc2c(C)c(O)c(C)c(C)c2O1 (stereo not drawn)
21,140 to 141,Cc1nc([C@@H]2C[C@H]2c2ccc3ccccc3n2)cc(-n2nc(C)nc2C)n1 (relative stereo)
22,> 250,CCCNCC1Cc2cc(F)cc(-c3c(Cl)cccc3Cl)c2O1 (stereo not drawn)
23,170,CCCCc1nc(O)c(CC(=O)OCC)c(=O)n1Cc1ccc(C(=O)OC)cc1
24,164 to 167,COc1ccc(C=C2C(=O)N(C3=NCCS3)c3ccccc32)cc1

row,melting point [°C],Structure (SMILES)
1,131 to 132,CC(C)=C(C#N)C(=O)NCc1ccc(Cl)c(Cl)c1
2,128 to 130,CC(C)(C(=O)O)c1ccc(OCc2ccccc2)cc1
3,154 to 156,COc1ccc(-c2ccnn2-c2ccc(N3C[C@H](CNC(C)=O)OC3=O)cc2F)cc1OC
4,126 to 127,Cc1c(NC(=O)CC(C)(C)C)cc2c(c1C)OC(C)(C)C2c1ccco1 (stereo not drawn)
5,190 to 192,Cc1c(C)c2c(c(C)c1NC=O)CC(C)(CSc1nc3ccccc3s1)O2 (stereo not drawn)
6,179,CCOC(=O)c1cn2ccncc2n1
7,44 to 45,N#CC1=Cc2ccccc2OC1
8,113 to 115,CC(Cc1ccc(CCNS(=O)(=O)c2ccccc2)cc1)C(=O)O (stereo not drawn)
9,112 to 115,O=C(SCCCN1C(=O)NCC1c1ccccc1)c1ccccc1 (stereo not drawn)
10,101 to 104,CCC(C)(O)CCCCc1cccc(CCc2ccc(O)c(CO)c2)c1 (stereo not drawn)
11,103 to 105,O=C(O)C(c1ccc([N+](=O)[O-])cc1)N1CCCC1 (stereo not drawn)
12,179 to 181,CC(=O)Nc1ccc(Br)c2c1CCN(C(C)=O)C2
13,114 to 117,CCOC(=O)c1c[nH]c(Br)c1-c1cccc(F)c1
14,116 to 118,CCCc1c(OCCCCCOc2ccccc2CCCC(=O)O)ccc2c1OCCC2=O
15,136 to 137,COc1ccc(COCc2nc(C(C)C)c(Sc3cc(Cl)cc(Cl)c3)n2C(C)C)cc1
16,161 to 164,Cc1c(-c2ccc(Cl)cc2)n(Cc2ccc(OCCN3CCCCC3)cc2)c2ccc(O)cc12
17,84 to 85,COc1ccc(Cc2cc(C(C)(C)C)cc(C(C)(C)C)c2O)cc1
18,122 to 125,COc1ccc(CC(=O)N[C@@H](C)CO)cc1OC
19,101 to 103,COC(=O)C1(C(C[N+](=O)[O-])c2ccccc2)CCc2ccccc2C1=O (stereo not drawn)
20,67 to 68,Cc1cc(C)c([Si]2(c3c(C)cc(C)cc3C)C(=O)C(c3ccccc3)=C(c3ccccc3)C(=O)[Si]2(c2c(C)cc(C)cc2C)c2c(C)cc(C)cc2C)c(C)c1
21,230 to 232,Nc1nc2ccccc2c2c1nc1n2C(CCl)COC1 (stereo not drawn)
22,> 250,CSc1nc(-c2ccncc2)n(-c2ccc(C)cc2)c(=O)c1C#N
23,89.5 to 90.5,CCOC(=O)C(=CNc1sc(Cl)cc1C(=O)OC)C(=O)OCC

row,Structure (SMILES),melting point [°C]
1,CN1CCC(c2c[nH]c3ccc([N+](=O)[O-])cc23)C(F)C1 (stereo not drawn),105 to 107
2,C=CCONC(=O)COc1cccc2c1c(C(=O)C(N)=O)c(CC)n2Cc1ccccc1,175 to 177
3,Cc1nc2cc(NC(=O)c3cc4cccnc4n3Cc3cccc(F)c3)ccc2n1C,242 to 244
